{
  "source": "paper PMC6826616",
  "about": "“Topical 2′-Hydroxyflavanone for Cutaneous Melanoma” (Cancers, 2019)",
  "assay_type_in_all_cases": "cell-based",
  "key": {"B16-F0 cells": {"tested_on": "B16-F0 cells", "assay": "MTT cytotoxicity assay, B16-F0", "settings": "Mus musculus, B16F0; Table 1, agent alone; read-out: IC50", "from_the_text": "(§1) We studied the growth-inhibitory effects of 2HF on the B16-F0 and B16-F10 murine melanoma cell lines as well as on the SK-MEL-24 human melanoma cell line. B16-F10 and SK-MEL-24 have been shown in previous studies to be highly resistant to treatment and much more invasive than B16-F0 [32]. […] The absorption value measured upon reduction of the MTT dye by functional mitochondria is an indirect measure of cell number that cannot distinguish inhibited cell proliferation from apoptotic or necrotic cell death. By counting viable (trypan-blue dye-excluding) cells using a hemacytometer, we verified that 2HF did indeed cause cell death.\n(§2) Figure 1 Mouse and human melanoma cell survival following 2′-hydroxyflavanone (2HF) treatment.\n(§3) The IC50 of 2HF on B16-F0, B16-F10, and SK-MEL-24 cells was determined by MTT cytotoxicity assay. Cells were harvested and Trypan Blue dye exclusion test was used to determine the number of viable cells present in a cell suspension using a hemocytometer. The cell suspension was diluted to 5 × 10^4 cells/mL with Dulbecco’s Modified Eagle’s Medium (DMEM) complete medium and 5000 cells/well were plated in 96-well plates. After 24 h incubation at 37 °C, cells were treated with 2HF concentrations ranging from 0–200 µM (8 replicates per plate). After 48 or 72 h incubation, 40 µL of MTT (5 mg/mL) solution was added. After 4 h incubation, the plate was centrifuged at 700× g for 5 min and medium was aspirated completely. Then, 50 µL DMSO was added to each well to dissolve the purple precipitate on the rocking platform for about 15 min. The absorbance was then measured at 490 nm using a 96-well microplate reader (Spectramax Plus, Molecular Devices, Inc, San Jose, CA, USA)."}, "B16-F10 cells": {"tested_on": "B16-F10 cells", "assay": "MTT cytotoxicity assay, B16-F10", "settings": "Mus musculus, Table 1, agent alone, read-out: IC50", "from_the_text": "as §1, §2, §3"}, "SK-MEL-24 cells": {"tested_on": "SK-MEL-24 cells", "assay": "MTT cytotoxicity assay, SK-MEL-24", "settings": "Homo sapiens, Table 1, agent alone, read-out: IC50", "from_the_text": "as §1, §2, §3"}},
  "data": [
    {"smiles": "COC1CCN(C(=O)c2cc(Cc3n[nH]c(=O)c4ccccc34)ccc2F)CC1", "note": "[PARP1i, AZD 2461, reference compound]", "values": [
      {"measurement": "IC50", "setting": "B16-F0 cells", "value": "16.5 ± 4.86", "unit": "µM"},
      {"measurement": "IC50", "setting": "B16-F10 cells", "value": "29.9 ± 28.5", "unit": "µM"},
      {"measurement": "IC50", "setting": "SK-MEL-24 cells", "value": "55 ± 23.9", "unit": "µM"}
    ]}
  ]
}
